The target of one test is T1, HSP90a protein (Homo sapiens, UniProt P07900).
T1 construct: purchased BPS Bioscience 50298
In words: HSP90α-binding fluorescent polarization (FP) assay, BODIPY-labeled RNK04010 probe. The following applies: FP competition with RNK04010 (BODIPY-labeled), 5 nM, 300 min at 25° C. The gist of the method: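 Binding was scored by fluorescence polarization after adding N-terminal HSP90a to wells holding probe and compound, with compound tested from 20 μM to 5.2 nM. Probe-dependent times at 25° C were 120 min for FITC-geldanamycin and 300 min for RNK04010-BODIPY, both at 5 nM final.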

Test [1] deals with MIA PaCa-2 human pancreatic carcinoma. In words: MIA PaCa-2 CCK-8 proliferation assay. To be noted: Homo sapiens, MIA PaCa-2, 72 h, MIA PaCa-2 cells. The test is classed as cell-based. The gist of the method: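 Proliferation of mutant-KRAS(G12C) cells (2 copies in MIA PaCa-2, single copy in NCI-H358/NCI-H23) measured with CCK-8 after treatment across 20 μM–1.02 nM; inhibition expressed relative to vehicle-treated wells after subtracting no-cell background.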

A further test addresses KRAS(G12C) (Homo sapiens, UniProt P01116, G12C). In words: KRAS(G12C)/SOS1 homogeneous time-resolved fluorescence (HTRF) assay. The following applies: absence of GTP, 4° C. for 3 hr, read-out: KRAS (G12C) binding. On the set-up: purchased Cisbio 63ADK000CB16PEG. The gist of the method:
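Three-hour incubation at 4 °C of 3-fold compound dilutions (lowest 1.02 nM) with KRAS(G12C), SOS1 and detection reagents, GTP absent. Disruption of the KRAS(G12C)/SOS1 complex detected by time-resolved fluorescence.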

Sequence of KRAS(G12C) (P01116 1-188 isoform P01116-2 G12C): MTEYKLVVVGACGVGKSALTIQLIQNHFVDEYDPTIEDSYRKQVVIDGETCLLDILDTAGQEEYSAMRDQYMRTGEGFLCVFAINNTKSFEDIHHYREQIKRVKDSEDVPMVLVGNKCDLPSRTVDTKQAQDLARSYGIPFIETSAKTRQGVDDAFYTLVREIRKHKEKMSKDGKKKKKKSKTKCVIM

As to `C=CC(=O)N1CCN(c2nc(OC[C@@H]3CC[C@H](C(=O)N4CCN(C(=O)C5CCN(Cc6ccc(-n7c(C(=O)NCC(F)(F)F)nnc7-c7cc(C)c(O)cc7O)cc6)CC5)CC4)N3C)nc3c2CCN(c2cccc4cccc(Cl)c24)C3)C[C@@H]1CC#N` [Compound 332, 4-{4-[(4-{4-[(2R,5S)-5-({[7-(8-chloronaphthalen-1-yl)-4-[(3S)-3-(cyanomethyl)-4-(prop-2-enoyl)piperazin-1-yl]-5H,6H,8H-pyrido[3,4-d]pyrimidin-2-yl]oxy}methyl)-1-methylpyrrolidine-2-carbonyl]piperazine-1-carbonyl}piperidin-1-yl)methyl]phenyl}-5-(2,4-dihydroxy-5-methylphenyl)-N-(2,2,2-trifluoroethyl)-1,2,4-triazole-3-carboxamide], the IC50 on HSP90a protein and at KRAS(G12C) was under 100 nM each time. In addition, the EC50 in test [1] is under 100 nM.

Consider `C=CC(=O)N1CCN(c2nc(OC[C@@H]3C[C@H](C(=O)N4CCN(Cc5ccc(-n6c(C(=O)NCC(F)(F)F)nnc6-c6cc(C(C)C)c(O)cc6O)cc5)CC4)CN3C)nc3c2CCN(c2cccc4cccc(Cl)c24)C3)C[C@@H]1CC#N` [Compound 333, 4-[4-({4-[(3S,5S)-5-({[7-(8-chloronaphthalen-1-yl)-4-[(3S)-3-(cyanomethyl)-4-(prop-2-enoyl)piperazin-1-yl]-5H,6H,8H-pyrido[3,4-d]pyrimidin-2-yl]oxy}methyl)-1-methylpyrrolidine-3-carbonyl]piperazin-1-yl}methyl)phenyl]-5-(2,4-dihydroxy-5-isopropylphenyl)-N-(2,2,2-trifluoroethyl)-1,2,4-triazole-3-carboxamide], for which the figures for the IC50 at HSP90a protein and at KRAS(G12C) were under 100 nM and 100 to 1000 nM, respectively. This molecule also showed a concentration for a half-maximal effect (EC50) in test [1] of under 100 nM.

In the case of `C=CC(=O)N1CCN(c2nc(OC[C@@H]3C[C@H](N4CCC(C(=O)NCCOCCOc5ccc(-n6c(O)nnc6-c6cc(CC)c(O)cc6O)cc5)CC4)CN3C)nc3c2CCN(c2cccc4cccc(Cl)c24)C3)C[C@@H]1CC#N` [Compound 335, 1-[(3S,5S)-5-({[7-(8-chloronaphthalen-1-yl)-4-[(3S)-3-(cyanomethyl)-4-(prop-2-enoyl)piperazin-1-yl]-5H,6H,8H-pyrido[3,4-d]pyrimidin-2-yl]oxy}methyl)-1-methylpyrrolidin-3-yl]-N-[2-(2-{4-[3-(5-ethyl-2,4-dihydroxyphenyl)-5-hydroxy-1,2,4-tri-azol-4-yl]phenoxy}ethoxy)ethyl]piperidine-4-carboxamide], the IC50 on HSP90a protein and at KRAS(G12C) was under 100 nM each time. The molecule also registered an EC50 in test [1] of over 1000 nM.

On to `C=CC(=O)N1CCN(c2nc(OC[C@@H]3C[C@H](N(C)CCC(=O)N4CCN(Cc5ccc(-n6c(C(=O)NCC(F)(F)F)nnc6-c6cc(C(C)C)c(O)cc6O)cc5)CC4)CN3C)nc3c2CCN(c2cccc4cccc(Cl)c24)C3)C[C@@H]1CC#N` [Compound 337, 4-(4-{[4-(3-{[(3S,5S)-5-({[7-(8-chloronaphthalen-1-yl)-4-[(3S)-3-(cyanomethyl)-4-(prop-2-enoyl)piperazin-1-yl]-5H,6H,8H-pyrido[3,4-d]pyrimidin-2-yl]oxy}methyl)-1-methylpyrrolidin-3-yl](methyl)amino}propanoyl)piperazin-1-yl]methyl}phen-yl)-5-(2,4-dihydroxy-5-isopropylphenyl)-N-(2,2,2-trifluoroethyl)-1,2,4-triazole-3-carboxamide], for which the IC50 was under 100 nM on HSP90a protein and 100 to 1000 nM on KRAS(G12C). The same molecule returned an EC50 in test [1] of 100 to 1000 nM.

As for `C=CC(=O)N1CCN(c2nc(OC[C@@H]3C[C@H](N4CCC5(CCN(Cc6cc(C(C)C)c(O)cc6O)CC5)CC4)CN3C)nc3c2CCN(c2cccc4cccc(Cl)c24)C3)C[C@@H]1CC#N` [Compound 338, 2-[(2S)-4-[7-(8-chloronaphthalen-1-yl)-2-{[(2S,4S)-4-{9-[(2,4-dihydroxy-5-isopropylphenyl)methyl]-3,9-diazaspiro[5.5]undecan-3-yl}-1-methylpyrrolidin-2-yl]methoxy}-5H,6H,8H-pyrido[3,4-d]pyrimidin-4-yl]-1-(prop-2-enoyl)piperazin-2-yl]acetonitrile], the IC50 at HSP90a protein was 100 to 1000 nM; at KRAS(G12C), under 100 nM. The molecule further registered an EC50 in test [1] of over 1000 nM.

Turning to `C=CC(=O)N1CCN(c2nc(OC[C@@H]3C[C@H](C(=O)N4CCN(Cc5ccc(-n6c(C(=O)NCC(F)(F)C(F)(F)F)nnc6-c6cc(C(C)C)c(O)cc6O)cc5)CC4)CN3C)nc3c2CCN(c2cccc4cccc(Cl)c24)C3)C[C@@H]1CC#N` [Compound 339, 4-[4-({4-[(3S,5S)-5-({[7-(8-chloronaphthalen-1-yl)-4-[(3S)-3-(cyanomethyl)-4-(pr-op-2-enoyl)piperazin-1-yl]-5H,6H,8H-pyrido[3,4-d]pyrimidin-2-yl]oxy}methyl)-1-methylpyrrolidine-3-carbonyl]piperazin-1-yl}methyl)phenyl]-5-(2,4-dihydroxy-5-isopropylphenyl)-N-(2,2,3,3,3-pentafluoropropyl)-1,2,4-triazole-3-carboxamide], the results for the IC50 at HSP90a protein and at KRAS(G12C) were under 100 nM and 100 to 1000 nM, respectively. The molecule further displayed an EC50 in test [1] of 100 to 1000 nM.

Turning to `C=CC(=O)N1CCN(c2nc(OC[C@@H]3C[C@H](C(=O)N4CCN(Cc5ccc(-n6c(O)nnc6-c6cc(C(C)C)c(O)cc6O)cc5)CC4)CN3C)nc3c2CCN(c2cccc4cccc(Cl)c24)C3)C[C@@H]1CC#N` [Compound 340, 2-[(2S)-4-[7-(8-chloronaphthalen-1-yl)-2-{[(2S,4S)-4-[4-({4-[3-(2,4-dihydroxy-5-isopropylphenyl)-5-hydroxy-1,2,4-triazol-4-yl]phenyl}methyl)piperazine-1-car-bonyl]-1-methylpyrrolidin-2-yl]methoxy}-5H,6H,8H-pyrido[3,4-d]pyrimidin-4-yl]-1-(prop-2-enoyl)piperazin-2-yl]acetonitrile], the IC50 at HSP90a protein and at KRAS(G12C) was under 100 nM throughout. The molecule also yielded an EC50 in test [1] of 100 to 1000 nM.

Take `C=CC(=O)N1CCN(c2nc(OC[C@H]3CC[C@@H](C(=O)N4CCN(C(=O)C5CCN(Cc6ccc(-n7c(O)nnc7-c7cc(C(C)C)c(O)cc7O)cc6)CC5)CC4)N3C)nc3c2CCN(c2cccc4cccc(Cl)c24)C3)C[C@@H]1CC#N` [Compound 342, 2-[(2S)-4-[7-(8-chloronaphthalen-1-yl)-2-{[(2R,5S)-5-{4-[1-({4-[3-(2,4-dihydroxy-5-isopropylphenyl)-5-hydroxy-1,2,4-triazol-4-yl]phenyl}methyl)piperidine-4-carbonyl]piperazine-1-carbonyl}-1-methylpyrrolidin-2-yl]methoxy}-5H,6H,8H-pyri-do[3,4-d]pyrimidin-4-yl]-1-(prop-2-enoyl)piperazin-2-yl]acetonitrile]: the IC50 at HSP90a protein and at KRAS(G12C) was under 100 nM in each case. In test [1], the EC50 fell in the range of 100 to 1000 nM.

With `C=CC(=O)N1CCN(c2nc(OC[C@@H]3C[C@H](C(=O)N4CCN(CCNC(=O)c5nnc(-c6cc(C(C)C)c(O)cc6O)n5-c5ccccc5)CC4)CN3C)nc3c2CCN(c2cccc4cccc(Cl)c24)C3)C[C@@H]1CC#N` [Compound 343, N-(2-{4-[(3S,5S)-5-({[7-(8-chloronaphthalen-1-yl)-4-[(3S)-3-(cyanomethyl)-4-(pr-op-2-enoyl)piperazin-1-yl]-5H,6H,8H-pyrido[3,4-d]pyrimidin-2-yl]oxy}methyl)-1-methylpyrrolidine-3-carbonyl]piperazin-1-yl}ethyl)-5-(2,4-dihydroxy-5-isopropylphenyl)-4-phenyl-1,2,4-triazole-3-carboxamide], the IC50 on HSP90a protein and on KRAS(G12C) was under 100 nM each time. In test [1], this molecule registered a half-maximal effective concentration (EC50) of 100 to 1000 nM.
